What was measured:
human mast cells = assay: ISM-like mast cell chemotaxis towards conditioned media (Transwell); type: cell-based; conditions: ISM-like conditions, four healthy donors, treated two hours
Experimental: Human mast cells were differentiated from bone marrow CD34+ cells from four healthy donors as set forth in Example 4. Cells were used to produce conditioned media in ISM-like conditions. Conditioned media was the supernatant collected from mast cells cultured with stem cell factor (100 ng/mL), sensitized with NP-IgE (0.1 μg/mL) for 18 hours, treated with Compound 128 for two hours, and stimulated with NP-BSA (antigen; 0.1 μg/mL) for four hours. Migration of mast cells in the top chamber on Transwell […] inserts (Corning) towards the antigen-stimulated conditioned media in the bottom chamber was quantified after four hours using the CellTiter-Glo™ Luminescent Cell Viability Assay Kit (Promega). The amount of luminescence is correlated with live cell numbers. Fold change over the non-activated control was calculated.

mast cells [1] = assay: Return of degranulation after Compound 128 exposure and washout (FIG. 18); type: cell-based; conditions: flow cytometry
Text: FIGS. 18A-D show return of degranulation after Compound 128 exposure.

BTK = BTK (Homo sapiens, UniProt Q06187); assay: pBTK test in ISM-like (+SCF) human mast cells; type: cell-based; design: endogenous in cells; host or cells: Primary human mast cells differentiated from bone marrow CD34+ cells of healthy donors, cultured with SCF; conditions: six healthy donors, treated two hours
Experimental: Human mast cells were derived from bone marrow CD34+ cells from six healthy donors for up to eight weeks by culturing CD34+ cells in StemSpan SFEM II (Stem Cell Technologies) supplemented with stem cell factor (SCF; 100 ng/mL; R&D System), IL-6 (R&D Systems), IL-3 (R&D Systems) and 1% penicillin/streptomycin (P/S; Gibco) for the first 10 days and in StemSpan SFEM II supplemented with SCF and IL-6 and 1% P/S for the remaining time in culture. […] Supernatant was collected and histamine levels were measured using a Histamine ELISA kit (Eagle Biosciences). […] Percent of activated mast cells was calculated as number of activated mast cells over the total number of mast cells.
Human mast cells were differentiated from bone marrow CD34+ cells from six healthy donors, cultured and sensitized as set forth in Example 4. […] The median fluorescence intensity of phosphorylated BTK was measured. CD63 and histamine levels in these cells were measured and percent activated mast cells were calculated as set forth in Example 4. The percent of stimulated control for pBTK, activated mast cells (CD63+) and histamine levels was calculated. […]

mast cells [2] = assay: Phosphorylation and degranulation markers in antigen-stimulated mast cells grown with chronic SCF (FIG. 21); type: cell-based; conditions: 0.1-0.6 μM, antigen 15 minutes
Experimental: Histamine release, CD63 expression, CD203c expression, pBTK (Y223) levels, pP38 (T180/Y182) levels, pPLCg1 (S1248) levels, pERK (T202/Y204) levels, and pS6 (S235/236) levels are shown. Mast cells were grown with continuous (chronic) exposure to SCF and then stimulated with antigen (Ag) for 15 minutes, leading to phosphorylation of multiple kinases, including pBTK, pPLCγ1, pP38, pERK, and pS6 ribosome. This stimulation increases degranulation markers, including CD63, CD203c, and histamine release.

serum tryptase = assay: Serum tryptase in ISM patients; type: in vivo, human; conditions: 100 mg or 150 mg BID
Experimental: Also, blood samples were collected at the following timepoints: Cycle 1, Day 1: pre-dose (within 30 minutes prior to the morning dose), 0.5, 1.0, 2.0, 3.0, 4.0, and 6.0 hours (±15 minutes) post-morning dose. Cycle 1, Day 8: pre-dose (within 30 minutes prior to the morning dose) and 2 hours (±15 minutes) post-morning dose. Serum tryptase tests were conducted according to Example 14.
The measurement of serum tryptase can be followed to the procedure described in the literature (McMurray et al., Standardized indolent systemic mastocytosis evaluations across a health care system: implications for screening accuracy, Blood (2024) 144 (4): 408-419). Briefly, the procedure begins with proper patient preparation, avoiding recent physical activity or triggers that could cause mast cell activation. Venous blood samples, preferably drawn when the patient is not experiencing acute symptoms, are collected in serum separator tubes (SSTs) or plain red-top tubes, with approximately 5 mL of blood needed for analysis. After collection, the blood is allowed to clot at room temperature for 30-60 minutes before centrifugation for 10-15 minutes. The serum is then carefully separated from the cells and stored at 2-8° C. for short-term analysis or frozen at −20° C. or lower for long-term storage. […]

BTK, sequence (Q06187 whole entry): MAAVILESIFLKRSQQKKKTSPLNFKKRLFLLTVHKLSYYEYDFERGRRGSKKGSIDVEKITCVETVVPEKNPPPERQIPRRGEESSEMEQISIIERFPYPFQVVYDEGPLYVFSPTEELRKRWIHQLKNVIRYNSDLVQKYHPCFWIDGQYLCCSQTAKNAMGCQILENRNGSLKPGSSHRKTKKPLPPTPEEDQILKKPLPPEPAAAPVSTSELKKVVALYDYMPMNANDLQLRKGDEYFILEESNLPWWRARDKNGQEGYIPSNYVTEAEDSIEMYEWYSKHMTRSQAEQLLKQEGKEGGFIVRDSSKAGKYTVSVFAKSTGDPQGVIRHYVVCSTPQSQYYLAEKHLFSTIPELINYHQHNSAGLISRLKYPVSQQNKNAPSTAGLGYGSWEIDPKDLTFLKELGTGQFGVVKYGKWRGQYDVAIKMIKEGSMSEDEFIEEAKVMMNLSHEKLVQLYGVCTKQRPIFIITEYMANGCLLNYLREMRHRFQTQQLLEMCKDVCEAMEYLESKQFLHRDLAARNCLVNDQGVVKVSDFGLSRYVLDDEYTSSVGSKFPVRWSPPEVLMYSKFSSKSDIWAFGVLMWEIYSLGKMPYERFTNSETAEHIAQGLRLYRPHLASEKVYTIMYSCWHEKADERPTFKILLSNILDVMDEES

C=CC(=O)N1CCC(F)(CNc2ncnc(N)c2-c2ccc(Oc3ccccc3)cc2)CC1 [Compound 128, 1-(4-(((6-amino-5-(4-phenoxyphenyl)pyrimidin-4-yl)amino)methyl)-4-fluoropiperidin-1-yl)prop-2-en-1-one]
chemoattractant activity of mast cells (chemotaxis towards conditioned media) (human mast cells): inhibited | time to restoration of degranulation after inhibition (mast cells [1]): ≤ 24 h | inhibition of IgE-mediated BTK phosphorylation (BTK): potently inhibits | phosphorylation (pBTK, pPLCγ1, pP38, pERK, pS6) and degranulation (CD63, CD203c, histamine) (mast cells [2]): decrease to near basal levels | reduction in serum tryptase (serum tryptase): effective in reducing serum tryptase levels
